Measured values taken from article PMC5874133 (Science immunology, 2018).
Ends that are not written are not given here.

How the values were obtained:
[1] = test system: D222D clone 2 or a MelanA26–35-reactive clone vs. cognate peptide-pulsed LCLs; test: inhibition of lysis of cognate peptide-pulsed LCLs by CD8^+ T-cell clones; assay type: cell-based, human; conditions: D222D clone 2 or MelanA26–35-reactive clone; 4 h, E/T 1/1; triplicate; Fig. 1F
[2] = test system: ZnT8_186–194-reactive CD8^+ T-cell clones; test: effect on MMr staining of ZnT8_186–194-reactive CD8^+ T-cell clones; assay type: cell-based, human; conditions: normalized MMr fluorescence intensities between clones; Fig. 2B
[3] = biological target: recombinant HLA-A2 molecules (Homo sapiens, UniProt P04439, D140Y/D185E/D98H/E176V/E277Q/G131W/G231S/I119V/I121R/I166T/I218V/L300P/L318F/N151K/N90K/P208A/P217A/Q86G/Q94H/R138H/R169H/T345S); test: peptide binding to recombinant HLA-A2
[4] = test system: ZnT8_186–194-reactive CD8^+ T-cell clone H017N; assay type: cell-based, human; conditions: peptide-pulsed LCLs, 0.1 µM, 6 h, percent cytokine^+ cells, two experiments, p=0.008, Fig. 7E

| Compound | inhibition of lytic activity [1] | Kd [3] | also measured |
| --- | --- | --- | --- |
| C[C@H]1CCC/C=C/[C@@H]2C[C@H](O)C[C@H]2[C@H](O)/C=C/C(=O)O1 [brefeldin A] | marginally | – | – |
| C/C=C/[C@H]1O[C@@](O)([C@@H](C)[C@H](O)[C@H](C)[C@H]2OC(=O)/C(OC)=C/C(C)=C/[C@@H](C)[C@@H](O)[C@@H](CC)[C@@H](O)[C@H](C)C/C(C)=C/C=C/[C@@H]2OC)C[C@@H](O[C@H]2C[C@@H](O)[C@H](OC(N)=O)[C@@H](C)O2)[C@@H]1C [concanamycin A] | inhibited significantly | – | – |
| Cc1nc(Nc2ncc(C(=O)Nc3c(C)cccc3Cl)s2)cc(N2CCN(CCO)CC2)n1 [dasatinib] | – | – | effect on variability of MMr fluorescence intensity [2]: reduced variability |
| AVAANIVLTV [ZnT8_185–194] | – | 207 nM | – |
| KAANIVLTV [B. stercoris mimotope] | – | – | agonist potency relative to native ZnT8_186–194 peptide [4]: stronger agonist potency |
| VAANIVLTV [ZnT8_186–194] | – | 15 nM | – |
